Reference: patent US20070244146A1, “Thienopyridines as IKK inhibitors” (priority 2004, published 2007)

Target: T1, recombinant human IKKb (Homo sapiens, UniProt O14920)
T1 sequence (O14920 1-756): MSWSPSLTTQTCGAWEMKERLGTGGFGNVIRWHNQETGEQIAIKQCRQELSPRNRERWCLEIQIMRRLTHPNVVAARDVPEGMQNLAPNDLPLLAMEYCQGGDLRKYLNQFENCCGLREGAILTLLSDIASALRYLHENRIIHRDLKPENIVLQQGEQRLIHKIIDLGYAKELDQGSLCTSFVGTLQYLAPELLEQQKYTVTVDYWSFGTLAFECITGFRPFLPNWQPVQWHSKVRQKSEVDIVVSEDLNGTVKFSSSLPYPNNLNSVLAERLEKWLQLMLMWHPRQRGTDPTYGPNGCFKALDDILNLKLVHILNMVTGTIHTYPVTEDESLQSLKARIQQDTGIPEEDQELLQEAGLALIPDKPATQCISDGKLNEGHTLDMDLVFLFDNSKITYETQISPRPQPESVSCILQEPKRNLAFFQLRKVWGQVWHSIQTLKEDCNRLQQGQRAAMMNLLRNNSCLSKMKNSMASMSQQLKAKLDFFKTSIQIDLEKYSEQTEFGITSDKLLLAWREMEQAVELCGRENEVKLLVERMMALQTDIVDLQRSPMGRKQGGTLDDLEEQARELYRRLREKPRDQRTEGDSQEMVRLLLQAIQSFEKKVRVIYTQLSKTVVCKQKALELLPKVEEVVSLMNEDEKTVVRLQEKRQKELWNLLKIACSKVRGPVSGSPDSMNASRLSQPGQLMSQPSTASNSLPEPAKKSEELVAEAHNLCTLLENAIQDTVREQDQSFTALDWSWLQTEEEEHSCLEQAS
Assay: IKK kinase assay: incorporation of radiolabeled ATP into biotin-peptide substrate derived from IkB-alpha
Assay type: biochemical
Details: purified recombinant human IKKb 25 nM, ATP 10 μM, 30 min at 30° C.
Procedure: This example describes an assay that is useful in evaluating and selecting a compound that modulates IKK. The assay measures the incorporation of radiolabeled ^3P gATP into the Biotin-peptide kinase substrate, derived from the IkB-alpha sequence.
In a 40 ul volume, 26 ul of ADB diluted, purified recombinant human IKKb [25 nM] was mixed with 4 ul 10× concentration of test compounds, [usually 100 uM-0.003 uM], [10%] DMSO and incubated for 10 minutes at room temperature. The kinase reaction was initiated by the addition of 10 ul 4× substrate cocktail containing the peptide substrate [0 or 30 μM] ATP [10 μM], and ^3PgATP [2 uCi/r×n]. After 30 minutes of incubation at 30° C., the reaction was terminated by the transfer of 25 ul reaction sample to a phosphocellulose membrane/plate containing 150 ul 0.75% phosphoric acid.
On the following day, the free radionucleotides in the phosphocellulose membrane were washed under vacuum with 3×200 ul of 0.75% phosphoric acid. After the last wash membrane/plates were transferred to an adoptor plate and 70 ul of scintillation cocktail was added to each well. After four hours, the amount of radioactivity for each well was counted in a top counter.

IC50: < 1 µM
Structure (SMILES): N#Cc1cccc(-c2cc3c(N)ncc(C(N)=O)c3s2)c1 [Compound 12, 4-Amino-2-(3-cyano-phenyl)-thieno[3,2-c]pyridine-7-carboxylic acid amide]
